# Experimental data from patent US9198433B2, “Substituted benzene fungicides” (E I DU PONT DE NEMOURS AND COMPANY, priority 2007, dated 2015).
# Marks after values point to notes of the source that are not given here.
# How the values were obtained:
# Type in all cases: in vivo
# [1] = system: Puccinia recondita f. sp. tritici; test: Test B: wheat leaf rust, preventive spray on wheat seedlings, disease rating
# Source text: (§1) The test compounds were first dissolved in acetone in an amount equal to 3% of the final volume and then suspended at the desired concentration (in ppm) in acetone and purified water (50/50 mix) containing 250 ppm of the surfactant Trem® 014 (polyhydric alcohol esters). The resulting test suspensions were then used in Tests A-L. Spraying a 200 ppm test suspension to the point of run-off on the test plants was the equivalent of an application rate of 500 g/ha. The test suspension was sprayed to the point of run-off on wheat seedlings. […] A dash (-) indicates no test results. All results are for 200 ppm except where followed by an “*”, which indicates 40 ppm or “**”, which indicates 50 ppm.
# [2] = system: Erysiphe graminis f. sp. tritici; test: Test A: wheat powdery mildew, preventive spray on wheat seedlings, disease rating
# Source text: as §1
# [3] = system: Septoria tritici; test: Test D: wheat leaf blotch, preventive spray on wheat seedlings, disease rating
# Source text: The test compounds were first dissolved in acetone in an amount equal to 3% of the final volume and then suspended at the desired concentration (in ppm) in acetone and purified water (50/50 mix) containing 250 ppm of the surfactant Trem® 014 (polyhydric alcohol esters). The resulting test suspensions were then used in Tests A-L. Spraying a 200 ppm test suspension to the point of run-off on the test plants was the equivalent of an application rate of 500 g/ha. The test suspension was sprayed to the point of run-off on wheat seedlings. The following day the seedlings were inoculated with a spore suspension of Septoria tritici (the causal agent of wheat leaf blotch) and incubated in a saturated atmosphere at 24° C. for 48 h, and then moved to a growth chamber at 20° C. for 19 days, after which time disease ratings were made. […] A dash (-) indicates no test results. All results are for 200 ppm except where followed by an “*”, which indicates 40 ppm or “**”, which indicates 50 ppm.
# [4] = system: Alternaria solani; test: Test H: tomato early blight, preventive spray on tomato seedlings, disease rating
# Source text: (§2) The test compounds were first dissolved in acetone in an amount equal to 3% of the final volume and then suspended at the desired concentration (in ppm) in acetone and purified water (50/50 mix) containing 250 ppm of the surfactant Trem® 014 (polyhydric alcohol esters). The resulting test suspensions were then used in Tests A-L. Spraying a 200 ppm test suspension to the point of run-off on the test plants was the equivalent of an application rate of 500 g/ha. The test suspension was sprayed to the point of run-off on tomato seedlings. […] A dash (-) indicates no test results. All results are for 200 ppm except where followed by an “*”, which indicates 40 ppm or “**”, which indicates 50 ppm.
# [5] = system: Botrytis cinerea; test: Test F: tomato Botrytis, preventive spray on tomato seedlings, disease rating
# Source text: as §2
# [6] = system: Septoria nodorum; test: Test C: wheat glume blotch, preventive spray on wheat seedlings, disease rating
# Source text: as §1
SMILES,"Percentage Disease Control, Test B ([1]; 40 ppm (*))","Percentage Disease Control, Test A ([2]; 40 ppm (*))","Percentage Disease Control, Test D ([3]; 40 ppm (*))","Percentage Disease Control, Test H ([4]; 40 ppm (*))","Percentage Disease Control, Test F ([5]; 40 ppm (*))","Percentage Disease Control, Test C ([6]; 40 ppm (*))","Percentage Disease Control, Test F ([5]; 200 ppm) [%]","Percentage Disease Control, Test B ([1]; 200 ppm) [%]","Percentage Disease Control, Test A ([2]; 200 ppm) [%]","Percentage Disease Control, Test D ([3]; 200 ppm) [%]","Percentage Disease Control, Test H ([4]; 200 ppm) [%]","Percentage Disease Control, Test C ([6]; 200 ppm) [%]"
COC(=O)NCc1cc(-c2ccn(-c3nccc(C(F)(F)F)n3)n2)ccc1Cl [Cmpd 87],100* %,82* %,99* %,9* %,0* %,97* %,,,,,,
COC(=O)NCc1cc(-c2ccn(-c3ccc(Cl)c(C(F)(F)F)c3)n2)ccc1Cl [Cmpd 88],97* %,95* %,100* %,0* %,0* %,100* %,,,,,,
COC(=O)NCc1cc(-c2ncn(-c3cccc(C(F)(F)F)c3)n2)ccc1Cl [Cmpd 89],100* %,100* %,100* %,89* %,,100* %,0,,,,,
COC(=O)NCc1cc(-c2ccn(-c3nc(SCc4ccccc4)ns3)n2)ccc1Cl [Cmpd 91],,,,,,,0,85,0,97,33,64
COC(=O)NCc1cc(-c2ccn(-c3nc(OC)ns3)n2)ccc1Cl [Cmpd 92],97* %,,,,,92* %,0,,82,72,15,
CCSc1nsc(-n2ccc(-c3ccc(Cl)c(CNC(=O)OC)c3)n2)n1 [Cmpd 93],98* %,93* %,96* %,,,100* %,0,,,,15,
COC(=O)NCc1cc(-c2ccn(-c3nc(-c4ccc(C(F)(F)F)cc4)ns3)n2)ccc1Cl [Cmpd 94],,,,,,,0,17,0,40,0,0
COC(=O)NCc1cc(-c2ccn(-c3nc(C4CC4)ns3)n2)ccc1Cl [Cmpd 95],100* %,100* %,100* %,,90* %,100* %,,,,,25,
COC(=O)NCc1cc(-c2ccn(-c3nc(C(C)(C)C)ns3)n2)ccc1Cl [Cmpd 96],100* %,100* %,100* %,,,100* %,0,,,,59,
COC(=O)NCc1cc(-c2ncn(-c3ccc(Br)cc3)n2)ccc1Cl [Cmpd 97],100* %,98* %,100* %,,,100* %,0,,,,85,
CCCCCc1cc(-c2ccc(Cl)c(CNC(=O)OC)c2)nn1C [Cmpd 98],98* %,,,,,90* %,0,,91,98,0,
COC(=O)NCc1cc(-c2cc(-c3ccc(C(C)(C)C)cc3)[nH]n2)ccc1Cl [Cmpd 99],,,,,,,98,74,82,92,0,0
COC(=O)NCc1cc(-c2cc(C(F)(F)F)[nH]n2)ccc1Cl [Cmpd 100],,,,,,,0,0,0,40,0,0
